Data reported in US10406146B2, “Heterocyclic compound” (TAKEDA PHARMACEUTICAL COMPANY LIMITED, priority 2015, dated 2019).

What was measured:
Assay type in all cases: biochemical
HDAC6 enzyme = target: T1, HDAC6 enzyme (Homo sapiens, UniProt Q9UBN7); test: HDAC6 enzyme inhibitory assay (HDAC-Glo I/II Assay kit); settings: wells without enzyme = 100% inhibition; for inhibition at 1 µM: read-out: HDAC6 inhibitory rate (%) (1 μM)
T1 construct: transducing full length HDAC1 and HDAC6 genes into Sf-9 insect cells; GST; purchased SignalChem; host or cells: Sf-9 insect cells
T1 sequence (Q9UBN7 1-1215): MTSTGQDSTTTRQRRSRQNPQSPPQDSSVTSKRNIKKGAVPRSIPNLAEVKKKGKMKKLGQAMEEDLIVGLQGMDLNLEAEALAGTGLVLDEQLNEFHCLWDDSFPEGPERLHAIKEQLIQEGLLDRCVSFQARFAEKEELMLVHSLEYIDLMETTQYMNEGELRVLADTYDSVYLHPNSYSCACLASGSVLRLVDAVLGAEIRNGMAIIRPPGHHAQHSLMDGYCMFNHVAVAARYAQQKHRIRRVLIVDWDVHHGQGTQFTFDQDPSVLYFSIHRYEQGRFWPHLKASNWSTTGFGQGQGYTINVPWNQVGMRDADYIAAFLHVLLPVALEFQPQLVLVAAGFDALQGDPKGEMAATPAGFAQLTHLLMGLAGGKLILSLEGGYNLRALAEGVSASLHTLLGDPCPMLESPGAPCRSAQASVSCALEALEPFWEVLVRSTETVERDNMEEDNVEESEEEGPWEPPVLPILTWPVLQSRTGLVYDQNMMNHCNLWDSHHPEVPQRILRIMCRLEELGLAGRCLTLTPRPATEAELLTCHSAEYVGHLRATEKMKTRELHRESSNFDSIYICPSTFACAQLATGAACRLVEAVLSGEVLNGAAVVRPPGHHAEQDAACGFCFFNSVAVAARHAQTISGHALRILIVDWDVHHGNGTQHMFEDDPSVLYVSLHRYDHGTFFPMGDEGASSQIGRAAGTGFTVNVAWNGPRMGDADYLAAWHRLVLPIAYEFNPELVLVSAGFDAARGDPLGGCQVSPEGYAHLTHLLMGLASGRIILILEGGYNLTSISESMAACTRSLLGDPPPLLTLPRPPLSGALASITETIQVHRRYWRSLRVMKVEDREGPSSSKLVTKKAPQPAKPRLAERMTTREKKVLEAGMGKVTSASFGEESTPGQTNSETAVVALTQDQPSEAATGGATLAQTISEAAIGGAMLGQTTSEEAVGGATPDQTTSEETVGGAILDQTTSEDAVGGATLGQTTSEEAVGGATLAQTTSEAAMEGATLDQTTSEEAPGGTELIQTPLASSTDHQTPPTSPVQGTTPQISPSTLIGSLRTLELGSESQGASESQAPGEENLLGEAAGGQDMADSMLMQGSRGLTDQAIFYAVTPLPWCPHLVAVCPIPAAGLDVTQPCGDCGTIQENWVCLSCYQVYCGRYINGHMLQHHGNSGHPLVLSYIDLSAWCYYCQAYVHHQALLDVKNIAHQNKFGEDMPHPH
Outline: (§1)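 Inhibitory activity derives from HDAC-Glo luminescence, expressed relative to wells lacking enzyme (100% inhibition). Compounds meet full-length GST-purified HDAC1 or HDAC6 for 60 min at room temperature before a 20 min substrate-developer reaction.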

HDAC1 enzyme = target: T2, HDAC1 enzyme (Homo sapiens, UniProt Q13547); test: HDAC1 enzyme inhibitory assay (HDAC-Glo I/II Assay kit); settings: wells without enzyme = 100% inhibition; for inhibition at 1 µM: read-out: HDAC1 inhibitory rate (%) (1 μM)
T2 construct: transducing full length HDAC1 and HDAC6 genes into Sf-9 insect cells; GST; purchased SignalChem; host or cells: Sf-9 insect cells
T2 sequence (Q13547 whole entry): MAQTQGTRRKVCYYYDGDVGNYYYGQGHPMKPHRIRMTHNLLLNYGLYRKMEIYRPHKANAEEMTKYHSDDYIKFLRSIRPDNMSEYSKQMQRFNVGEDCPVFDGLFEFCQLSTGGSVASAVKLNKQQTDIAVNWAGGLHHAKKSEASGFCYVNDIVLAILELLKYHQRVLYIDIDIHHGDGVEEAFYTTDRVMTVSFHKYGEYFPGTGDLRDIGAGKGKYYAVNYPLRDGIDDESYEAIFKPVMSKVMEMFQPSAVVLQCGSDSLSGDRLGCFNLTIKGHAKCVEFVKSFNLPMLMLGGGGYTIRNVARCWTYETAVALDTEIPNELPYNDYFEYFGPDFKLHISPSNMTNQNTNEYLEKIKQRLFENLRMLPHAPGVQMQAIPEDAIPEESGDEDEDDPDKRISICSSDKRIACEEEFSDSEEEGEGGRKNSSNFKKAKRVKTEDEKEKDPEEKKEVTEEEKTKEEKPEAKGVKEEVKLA
Outline: as §1

HDAC9 enzyme = target: T3, HDAC9 enzyme (Homo sapiens, UniProt Q9UKV0); test: HDAC9 enzyme inhibitory assay (HDAC-Glo class IIa); settings: wells without enzyme = 100% inhibition; for inhibition at 1 µM: read-out: HDAC9 inhibitory rate (%) (1 μM)
T3 construct: transducing full length HDAC9 gene into Sf-9 insect cells; made in house; host or cells: Sf-9 insect cells
T3 sequence (Q9UKV0 whole entry, species assumed): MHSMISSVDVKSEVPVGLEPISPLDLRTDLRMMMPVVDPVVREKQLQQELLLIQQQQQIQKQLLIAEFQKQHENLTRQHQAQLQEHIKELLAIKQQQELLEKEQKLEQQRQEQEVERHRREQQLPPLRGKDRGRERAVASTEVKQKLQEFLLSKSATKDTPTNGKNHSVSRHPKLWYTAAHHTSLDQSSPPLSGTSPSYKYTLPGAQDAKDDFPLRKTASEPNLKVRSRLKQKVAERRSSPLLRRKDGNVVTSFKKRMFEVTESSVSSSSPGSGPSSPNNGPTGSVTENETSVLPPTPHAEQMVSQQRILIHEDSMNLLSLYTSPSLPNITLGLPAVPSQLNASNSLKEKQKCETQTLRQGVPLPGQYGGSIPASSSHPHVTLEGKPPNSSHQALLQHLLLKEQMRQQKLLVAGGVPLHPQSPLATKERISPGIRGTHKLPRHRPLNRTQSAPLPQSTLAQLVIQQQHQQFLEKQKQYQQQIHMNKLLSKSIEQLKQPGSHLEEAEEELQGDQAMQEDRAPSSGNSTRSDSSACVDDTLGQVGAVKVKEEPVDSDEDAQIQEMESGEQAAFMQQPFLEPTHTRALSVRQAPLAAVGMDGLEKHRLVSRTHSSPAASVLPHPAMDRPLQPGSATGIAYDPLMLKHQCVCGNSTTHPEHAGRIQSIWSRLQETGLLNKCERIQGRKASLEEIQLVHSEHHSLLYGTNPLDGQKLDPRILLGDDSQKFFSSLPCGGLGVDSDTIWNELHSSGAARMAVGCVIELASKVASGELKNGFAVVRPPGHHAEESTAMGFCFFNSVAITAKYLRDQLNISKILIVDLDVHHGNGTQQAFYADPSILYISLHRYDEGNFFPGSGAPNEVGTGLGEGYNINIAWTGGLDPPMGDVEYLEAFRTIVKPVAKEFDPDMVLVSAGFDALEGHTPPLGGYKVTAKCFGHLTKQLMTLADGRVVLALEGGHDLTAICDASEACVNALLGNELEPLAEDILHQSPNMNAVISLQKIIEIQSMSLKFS
Outline: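 Full-length human HDAC9 from Sf-9 cells, Ni-NTA purified, preincubated with compound for 60 min at room temperature in Tris-HCl pH 7.5 buffer (MgCl2, KCl, NaCl, glutathione, Tween-20). HDAC-Glo class IIa substrate-developer added; luminescence read after 20 min, with no-enzyme wells defining 100% inhibition.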

| SMILES | inhibition at 1 µM (HDAC6 enzyme) [%] | inhibition at 1 µM (HDAC1 enzyme) [%] | inhibition at 1 µM (HDAC9 enzyme) [%] | HDAC6 inhibitory rate (%) (1 μM) (HDAC6 enzyme) | HDAC1 inhibitory rate (%) (1 μM) (HDAC1 enzyme) | HDAC9 inhibitory rate (%) (1 μM) (HDAC9 enzyme) |
| --- | --- | --- | --- | --- | --- | --- |
| O=C(NCC1CCCCN1C(=O)Nc1ccc(-c2noc(C(F)(F)F)n2)cc1)c1cccs1 (stereo not drawn) [Example 38, 2-(((2-thienylcarbonyl)amino)methyl)-N-(4-(5-(trifluoromethyl)-1,2,4-oxadiazol-3-yl)phenyl)piperidine-1-carboxamide] | 7 | 37 | 95 |  |  |  |
| Cn1nccc1C(=O)NC[C@@H]1COCCN1C(=O)Nc1ccc(-c2noc(C(F)(F)F)n2)cc1 [Example 63, (3R)-3-((((1-methyl-1H-pyrazol-5-yl)carbonyl)amino)methyl)-N-(4-(5-(trifluoromethyl)-1,2,4-oxadiazol-3-yl)phenyl)morpholine-4-carboxamide] | 11 | 70 | 99 |  |  |  |
| O=C(Cc1cccs1)NCC1CCCCN1C(=O)Nc1ccc(-c2noc(C(F)(F)F)n2)cc1 (stereo not drawn) [Example 46, 2-(((2-thienylacetyl)amino)methyl)-N-(4-(5-(trifluoromethyl)-1,2,4-oxadiazol-3-yl)phenyl)piperidine-1-carboxamide] | 11 | 93 | 94 |  |  |  |
| O=C(NCC1CCCCN1C(=O)Nc1ccc(-c2noc(C(F)(F)F)n2)cc1)c1cc[n+]([O-])cc1 (stereo not drawn) [Example 37, N-((1-((4-(5-(trifluoromethyl)-1,2,4-oxadiazol-3-yl)phenyl)carbamoyl)piperidin-2-yl)methyl)isonicotinamide 1-oxide] | 2 | 2 | 88 |  |  |  |
| O=C(NCC1CCCCN1C(=O)Nc1ccc(-c2noc(C(F)(F)F)n2)cc1)c1ccnc(O)c1 (stereo not drawn) [Example 58] |  |  |  | 3 | 25 | 87 |
| O=C(NCC1CCCCN1C(=O)Nc1ccc(-c2noc(C(F)(F)F)n2)cc1)c1ccc(Cl)cc1Cl (stereo not drawn) [Example 31] |  |  |  | −1 | −12 | 38 |
| O=C(NCC1CCCCN1C(=O)Nc1ccc(-c2noc(C(F)(F)F)n2)cc1)c1ccc(O)cc1 (stereo not drawn) [Example 27, 2-(((4-hydroxybenzoyl)amino)methyl)-N-(4-(5-(trifluoromethyl)-1,2,4-oxadiazol-3-yl)phenyl)piperidine-1-carboxamide] | 3 | 37 | 93 |  |  |  |
| N#Cc1ccc(C(=O)NCC2CCCCN2C(=O)Nc2ccc(-c3noc(C(F)(F)F)n3)cc2)cc1 (stereo not drawn) [Example 21, 2-(((4-cyanobenzoyl)amino)methyl)-N-(4-(5-(trifluoromethyl)-1,2,4-oxadiazol-3-yl)phenyl)piperidine-1-carboxamide] | 0 | 28 | 94 |  |  |  |
| O=C(NCC1CCCCN1C(=O)Nc1ccc(-c2noc(C(F)(F)F)n2)cc1)C1CCCCC1 (stereo not drawn) [Example 50] |  |  |  | 7 | 79 | 95 |
| Cn1nccc1C(=O)NCC1COCCN1C(=O)Nc1ccc(-c2noc(C(F)(F)F)n2)cc1 (stereo not drawn) [Example 61, 3-((((1-methyl-1H-pyrazol-5-yl)carbonyl)amino)methyl)-N-(4-(5-(trifluoromethyl)-1,2,4-oxadiazol-3-yl)phenyl)morpholine-4-carboxamide] | 8 | 62 | 98 |  |  |  |
| O=C(NCC1CCCCN1C(=O)Nc1ccc(-c2noc(C(F)(F)F)n2)cc1)c1cccc(C(F)(F)F)c1 (stereo not drawn) [Example 17, 2-(((3-(trifluoromethyl)benzoyl)amino)methyl)-N-(4-(5-(trifluoromethyl)-1,2,4-oxadiazol-3-yl)phenyl)piperidine-1-carboxamide] | 1 | 4 | 80 |  |  |  |
